From patent publication US10106556B2, “Heterocyclic compound” (TAKEDA PHARMACEUTICAL COMPANY LIMITED, priority 2015, dated 2018)

target: T1, His-hMAGL (recombinant polyhistidine tagged human MAGL protein) (Homo sapiens, UniProt Q99685); assay: Measurement of MAGL inhibitory activity (arachidonic acid production from 2-arachidonylglycerol, RapidFire-mass spectrometry); type: biochemical; settings: MAGL inhibitory rate at 10 μM test compound; 60 min preincubation with His-hMAGL, 2-arachidonylglycerol substrate, 10 min reaction at room temperature
T1 construct: made in house; host or cells: E. coli BL21(DE3)
T1 sequence (Q99685 1-303): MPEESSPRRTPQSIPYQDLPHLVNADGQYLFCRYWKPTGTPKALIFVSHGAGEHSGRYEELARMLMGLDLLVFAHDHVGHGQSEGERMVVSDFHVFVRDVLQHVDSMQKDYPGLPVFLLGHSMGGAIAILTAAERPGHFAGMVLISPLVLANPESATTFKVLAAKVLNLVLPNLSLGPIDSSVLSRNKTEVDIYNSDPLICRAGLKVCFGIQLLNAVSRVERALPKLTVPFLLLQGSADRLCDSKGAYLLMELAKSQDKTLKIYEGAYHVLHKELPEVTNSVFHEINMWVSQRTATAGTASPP
Summary of the method: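 Recombinant His-tagged human MAGL converted 2-arachidonylglycerol to arachidonic acid. Reactions received acetonitrile with 3 μM arachidonic acid-d8 as internal standard, and product was quantified by RapidFire SPE (C4) with negative-mode SRM mass spectrometry. Percent inhibition was calculated against compound-free and enzyme-free controls.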

| SMILES | inhibition at 10 µM [%] |
| --- | --- |
| O=C1COc2cc(F)c(C(=O)N3CC(COc4ccc(Cl)cc4-c4ccc(Cl)nc4)C3)cc2N1 [Example 205, 6-((3-((4-chloro-2-(6-chloropyridin-3-yl)phenoxy)methyl)azetidin-1-yl)carbonyl)-7-fluoro-2H-1,4-benzoxazin-3(4H)-one] | 103 |
| O=C1COc2cc(F)c(C(=O)N3CC(COc4ccc(Cl)cc4-c4ccnc(F)c4)C3)cc2N1 [Example 207, 6-((3-((4-chloro-2-(2-fluoropyridin-4-yl)phenoxy)methyl)azetidin-1-yl)carbonyl)-7-fluoro-2H-1,4-benzoxazin-3(4H)-one] | 100 |
| O=C1COc2cc(F)c(C(=O)N3CC(COc4ccc(Cl)cc4-c4ccncc4Cl)C3)cc2N1 [Example 210, 6-((3-((4-chloro-2-(3-chloropyridin-4-yl)phenoxy)methyl)azetidin-1-yl)carbonyl)-7-fluoro-2H-1,4-benzoxazin-3(4H)-one] | 101 |
| O=C1COc2cc(F)c(C(=O)N3CC(COc4ccc(Cl)cc4C4=CCOCC4)C3)cc2N1 [Example 211, 6-((3-((4-chloro-2-(3,6-dihydro-2H-pyran-4-yl)phenoxy)methyl)azetidin-1-yl)carbonyl)-7-fluoro-2H-1,4-benzoxazin-3(4H)-one] | 101 |
| CN1CC=C(c2cc(Cl)ccc2OCC2CN(C(=O)c3cc4c(cc3F)OCC(=O)N4)C2)CC1 [Example 212, 6-((3-((4-chloro-2-(1-methyl-1,2,3,6-tetrahydropyridin-4-yl)phenoxy)methyl)azetidin-1-yl)carbonyl)-7-fluoro-2H-1,4-benzoxazin-3(4H)-one] | 94 |
| O=C1COc2cc(F)c(C(=O)N3CC(COc4ccc(Cl)cc4-c4cnn(C(F)F)c4)C3)cc2N1 [Example 214, 6-((3-((4-chloro-2-(1-(difluoromethyl)-1H-pyrazol-4-yl)phenoxy)methyl)azetidin-1-yl)carbonyl)-7-fluoro-2H-1,4-benzoxazin-3(4H)-one] | 104 |
| O=C1COc2cc(F)c(C(=O)N3CC(COc4ccc(Cl)cc4-c4cnn(C5CC5)c4)C3)cc2N1 [Example 215, 6-((3-((4-chloro-2-(1-cyclopropyl-1H-pyrazol-4-yl)phenoxy)methyl)azetidin-1-yl)carbonyl)-7-fluoro-2H-1,4-benzoxazin-3(4H)-one] | 99 |
| Cn1nccc1-c1cc(Cl)ccc1OCC1CN(C(=O)c2cc3c(cc2F)OCC(=O)N3)C1 [Example 218, 6-((3-((4-chloro-2-(1-methyl-1H-pyrazol-5-yl)phenoxy)methyl)azetidin-1-yl)carbonyl)-7-fluoro-2H-1,4-benzoxazin-3(4H)-one] | 99 |
| Cn1cccc1-c1cc(Cl)ccc1OCC1CN(C(=O)c2cc3c(cc2F)OCC(=O)N3)C1 [Example 219, 6-((3-((4-chloro-2-(1-methyl-1H-pyrrol-2-yl)phenoxy)methyl)azetidin-1-yl)carbonyl)-7-fluoro-2H-1,4-benzoxazin-3(4H)-one] | 101 |
| O=C1COc2cc(F)c(C(=O)N3CC(COc4ccc(Cl)cc4-c4cnc(C(F)(F)F)nc4)C3)cc2N1 [Example 222, 6-((3-((4-chloro-2-(2-(trifluoromethyl)pyrimidin-5-yl)phenoxy)methyl)azetidin-1-yl)carbonyl)-7-fluoro-2H-1,4-benzoxazin-3(4H)-one] | 101 |
| CC(C)Cn1cc(-c2cc(Cl)ccc2OCC2CN(C(=O)c3cc4c(cc3F)OCC(=O)N4)C2)cn1 [Example 224, 6-((3-((4-chloro-2-(1-isobutyl-1H-pyrazol-4-yl)phenoxy)methyl)azetidin-1-yl)carbonyl)-7-fluoro-2H-1,4-benzoxazin-3(4H)-one] | 103 |
| O=C1COc2cc(F)c(C(=O)N3CC(COc4ccc(-c5ccc(F)cn5)cc4F)C3)cc2N1 [Example 228, 7-fluoro-6-((3-((2-fluoro-4-(5-fluoropyridin-2-yl)phenoxy)methyl)azetidin-1-yl)carbonyl)-2H-1,4-benzoxazin-3(4H)-one] | 94 |
| O=C1COc2cc(F)c(C(=O)N3CC(COc4ccc(-c5ccc(Cl)cn5)cc4F)C3)cc2N1 [Example 229, 6-((3-((4-(5-chloropyridin-2-yl)-2-fluorophenoxy)methyl)azetidin-1-yl)carbonyl)-7-fluoro-2H-1,4-benzoxazin-3(4H)-one] | 88 |
| Cc1cccnc1-c1ccc(OCC2CN(C(=O)c3cc4c(cc3F)OCC(=O)N4)C2)c(F)c1 [Example 231, 7-fluoro-6-((3-((2-fluoro-4-(3-methylpyridin-2-yl)phenoxy)methyl)azetidin-1-yl)carbonyl)-2H-1,4-benzoxazin-3(4H)-one] | 100 |

Second part, the molecule after the results:

| inhibition at 10 µM [%] | SMILES |
| --- | --- |
| 103 | Cc1ccncc1-c1cc(Cl)ccc1OCC1CN(C(=O)c2cc3c(cc2F)OCC(=O)N3)C1 [Example 203, 6-((3-((4-chloro-2-(4-methylpyridin-3-yl)phenoxy)methyl)azetidin-1-yl)carbonyl)-7-fluoro-2H-1,4-benzoxazin-3(4H)-one] |
| 100 | O=C1COc2cc(F)c(C(=O)N3CC(COc4ccc(Cl)cc4-c4ccc(F)nc4)C3)cc2N1 [Example 204, 6-((3-((4-chloro-2-(6-fluoropyridin-3-yl)phenoxy)methyl)azetidin-1-yl)carbonyl)-7-fluoro-2H-1,4-benzoxazin-3(4H)-one] |
| 104 | O=C1COc2cc(F)c(C(=O)N3CC(COc4ccc(Cl)cc4-c4ccncc4)C3)cc2N1 [Example 206, 6-((3-((4-chloro-2-(pyridin-4-yl)phenoxy)methyl)azetidin-1-yl)carbonyl)-7-fluoro-2H-1,4-benzoxazin-3(4H)-one] |
| 98 | O=C1COc2cc(F)c(C(=O)N3CC(COc4ccc(Cl)cc4-c4ccnc(Cl)c4)C3)cc2N1 [Example 208, 6-((3-((4-chloro-2-(2-chloropyridin-4-yl)phenoxy)methyl)azetidin-1-yl)carbonyl)-7-fluoro-2H-1,4-benzoxazin-3(4H)-one] |
| 101 | O=C1COc2cc(F)c(C(=O)N3CC(COc4ccc(Cl)cc4-c4ccncc4F)C3)cc2N1 [Example 209, 6-((3-((4-chloro-2-(3-fluoropyridin-4-yl)phenoxy)methyl)azetidin-1-yl)carbonyl)-7-fluoro-2H-1,4-benzoxazin-3(4H)-one] |
| 100 | Cn1cc(-c2cc(Cl)ccc2OCC2CN(C(=O)c3cc4c(cc3F)OCC(=O)N4)C2)cn1 [Example 213, 6-((3-((4-chloro-2-(1-methyl-1H-pyrazol-4-yl)phenoxy)methyl)azetidin-1-yl)carbonyl)-7-fluoro-2H-1,4-benzoxazin-3(4H)-one] |
| 97 | Cn1ccc(-c2cc(Cl)ccc2OCC2CN(C(=O)c3cc4c(cc3F)OCC(=O)N4)C2)n1 [Example 216, 6-((3-((4-chloro-2-(1-methyl-1H-pyrazol-3-yl)phenoxy)methyl)azetidin-1-yl)carbonyl)-7-fluoro-2H-1,4-benzoxazin-3(4H)-one] |
| 104 | Cc1cc(-c2cc(Cl)ccc2OCC2CN(C(=O)c3cc4c(cc3F)OCC(=O)N4)C2)nn1C [Example 217, 6-((3-((4-chloro-2-(1,5-dimethyl-1H-pyrazol-3-yl)phenoxy)methyl)azetidin-1-yl)carbonyl)-7-fluoro-2H-1,4-benzoxazin-3(4H)-one] |
| 102 | O=C1COc2cc(F)c(C(=O)N3CC(COc4ccc(Cl)cc4-c4ccc(C(F)(F)F)nc4)C3)cc2N1 [Example 220, 6-((3-((4-chloro-2-(6-(trifluoromethyl)pyridin-3-yl)phenoxy)methyl)azetidin-1-yl)carbonyl)-7-fluoro-2H-1,4-benzoxazin-3(4H)-one] |
| 102 | O=C1COc2cc(F)c(C(=O)N3CC(COc4ccc(Cl)cc4-c4ccc5c(c4)CCO5)C3)cc2N1 [Example 221, 6-((3-((4-chloro-2-(2,3-dihydro-1-benzofuran-5-yl)phenoxy)methyl)azetidin-1-yl)carbonyl)-7-fluoro-2H-1,4-benzoxazin-3(4H)-one] |
| 102 | Cc1cc(-c2cc(Cl)ccc2OCC2CN(C(=O)c3cc4c(cc3F)OCC(=O)N4)C2)n(C)n1 [Example 223, 6-((3-((4-chloro-2-(1,3-dimethyl-1H-pyrazol-5-yl)phenoxy)methyl)azetidin-1-yl)carbonyl)-7-fluoro-2H-1,4-benzoxazin-3(4H)-one] |
| 85 | O=C1COc2cc(F)c(C(=O)N3CC(COCC4CC4)C3)cc2N1 [Example 225, 6-((3-((cyclopropylmethoxy)methyl)azetidin-1-yl)carbonyl)-7-fluoro-2H-1,4-benzoxazin-3(4H)-one] |
| 101 | Cc1cc(Cl)ccc1OCC1CN(C(=O)c2cc3c(cc2F)OCC(=O)N3)C1 [Example 226, 6-((3-((4-chloro-2-methylphenoxy)methyl)azetidin-1-yl)carbonyl)-7-fluoro-2H-1,4-benzoxazin-3(4H)-one] |
| 97 | O=C1COc2cc(F)c(C(=O)N3CC(COc4ccc(-c5ccccn5)cc4F)C3)cc2N1 [Example 227, 7-fluoro-6-((3-((2-fluoro-4-(pyridin-2-yl)phenoxy)methyl)azetidin-1-yl)carbonyl)-2H-1,4-benzoxazin-3(4H)-one] |
| 95 | Cc1cccc(-c2ccc(OCC3CN(C(=O)c4cc5c(cc4F)OCC(=O)N5)C3)c(F)c2)n1 [Example 230, 7-fluoro-6-((3-((2-fluoro-4-(6-methylpyridin-2-yl)phenoxy)methyl)azetidin-1-yl)carbonyl)-2H-1,4-benzoxazin-3(4H)-one] |
